Laboratory results as given in BindingDB's records for patent US11028085 (Nimbus Saturn, 2021).

Target: Mitogen-activated protein kinase kinase kinase kinase 1 (Homo sapiens, UniProt Q92918)
Assay: Biochemical Enzyme Assay
Procedure: HPK1 biochemical enzyme assay: HPK1 enzyme inhibition was measured using a microfluidic mobility shift assay. […] Test compounds were titrated in ten point curves (top final assay concentration […]), and preincubated with enzyme/substrate mix for 30 min prior to initiation of the reaction by addition of ATP (1 mM final concentration) and substrate ([…] final concentration; Carna Biosciences) diluted in assay buffer supplemented by MgCl2 (final assay concentration of 5 mM). Following 60 min incubation at RT, the reaction was terminated by addition of 60 µl/well termination buffer (Carna Biosciences) and signal determination using a Caliper EZ Reader (Perkin Elmer, UK).

Mitogen-activated protein kinase kinase kinase kinase 1, sequence (Q92918 whole entry): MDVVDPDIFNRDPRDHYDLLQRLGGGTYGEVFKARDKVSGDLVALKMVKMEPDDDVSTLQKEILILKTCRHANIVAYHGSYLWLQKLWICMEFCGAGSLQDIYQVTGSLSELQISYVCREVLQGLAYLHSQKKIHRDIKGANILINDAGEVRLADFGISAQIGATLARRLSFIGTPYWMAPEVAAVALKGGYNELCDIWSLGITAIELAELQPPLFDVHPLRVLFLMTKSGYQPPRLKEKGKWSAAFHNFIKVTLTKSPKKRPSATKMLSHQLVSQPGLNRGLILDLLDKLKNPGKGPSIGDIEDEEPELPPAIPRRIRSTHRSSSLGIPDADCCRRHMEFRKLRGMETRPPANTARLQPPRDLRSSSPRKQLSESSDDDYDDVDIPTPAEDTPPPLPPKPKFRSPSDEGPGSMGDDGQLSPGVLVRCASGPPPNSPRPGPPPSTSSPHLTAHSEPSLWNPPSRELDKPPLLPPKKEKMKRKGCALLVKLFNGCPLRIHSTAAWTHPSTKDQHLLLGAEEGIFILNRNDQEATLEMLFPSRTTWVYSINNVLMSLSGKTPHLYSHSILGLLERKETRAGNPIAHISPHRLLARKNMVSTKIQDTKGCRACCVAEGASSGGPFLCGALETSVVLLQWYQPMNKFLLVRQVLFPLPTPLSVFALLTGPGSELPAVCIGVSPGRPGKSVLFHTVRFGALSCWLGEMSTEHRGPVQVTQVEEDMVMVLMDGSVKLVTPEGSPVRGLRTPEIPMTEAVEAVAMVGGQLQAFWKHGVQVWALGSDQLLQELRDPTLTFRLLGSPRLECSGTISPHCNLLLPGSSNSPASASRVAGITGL

IC50 | Compound
in the range around 550 nM | CCOc1c(C#N)cnn2c(-c3ccc(Nc4ccc(N5CCC(O)CC5)cn4)c4c3CNC4=O)cnc12 [US11028085, Compound I-185]
< 100 nM | CN1CC(c2ccn3c(-c4ccc(Nc5ccc(N6CCC(O)CC6)cc5)c5c4CNC5=O)cnc3c2)C1 [US11028085, Compound I-411]
